Like-named read-outs stand apart in the source and are kept apart here.
Assays:
[1] = system: female rats; experiment: antifatigue effect: rota-rod; format: in vivo, rat; details: Rattus norvegicus, ip, 0.25 h; for responders at 300 mg/kg: read-out: percentage of animals staying on the rota-rod more than 180 seconds, 300 mg/kg i.p.; for responders at 400 mg/kg: read-out: percentage of animals staying on the rota-rod more than 180 seconds, 400 mg/kg i.p.; for responders at 600 mg/kg: read-out: percentage of animals staying on the rota-rod more than 180 seconds, 600 mg/kg i.p.; for responders at 0.25 mg/kg: read-out: percentage of animals staying on the rota-rod more than 180 seconds, 0.25 mg/kg i.p.; for responders at 0.5 mg/kg: read-out: percentage of animals staying on the rota-rod more than 180 seconds, 0.50 mg/kg i.p.; for responders at 1 mg/kg: read-out: percentage of animals staying on the rota-rod more than 180 seconds, 1.00 mg/kg i.p.
Description: The antifatigue effect was also examined with the following results. The antifatigue effect was investigated by administering the compounds of the formula (I) according to the present application to female rats intraperitoneally in saline solution and saline solution alone to the controls by the same route. Every 15 minutes (sessions) after treatment, the animals were placed on a 6 cm diameter rod, rotating at 16 r.p.m. The percentage of the animals capable of staying on the rota-rod for a duration of more than 180 seconds was then recorded.

[2] = system: isolated rat atrium; experiment: antiarrhythmic effect, isolated rat atrium method of M. Libonati and G. Segre; details: Rattus norvegicus
[3] = system: isolated rabbit hearts; experiment: cardiokinetic effect on isolated heart (Langendorff): contractile force after anoxia, positive inotropic effect; details: 10 minutes from interruption of anoxic period
Description: (§1) The cardiokinetic effect on isolated heart was also investigated as follows. Rabbit hearts isolated by the Langendorff method were perfused with oxygenized ringer solution at 38.2° C. The isometric contractions, electrocardiogram and coronary flow were recorded using a "Battaglia-Rangoni" polygraph. By removing the oxygen from the perfusion fluid, metabolic damage was induced in the cardia muscle, up to an 80% reduction in the cardiac contractile force.
(§2) Under these conditions of prolonged anoxia the aerobic glycolysis of the myocardium is slowed down, accompanied by the storage of acid catabolites due to both the accumulation of pyruvic acid and its conversion to lactic acid which cannot be utilized because of the depression of pyridine enzymes, such as LDH (lactodehydrogenase). This has repercussions on the anaerobic glycolysis affecting an ever increasing number of enzymes, accompanied by a progressive and increasingly critical exhaustion of the myocardium. Thus a whole series of cardiac muscle fatigue levels occurs which can be observed by the behavior of the examined parameters, namely the contractile force, coronary flow, heart rate and cardiac rhythm. As soon as the contractile force was reduced by 80%, the perfusion fluid was once again oxygenized either without adding other compounds (controls) or with the addition of the compounds under examination.
Table 3 below gives the percentage values of the contractile force of the heart, showing a positive inotropic effect, calculated after 10 minutes from the interruption of the anoxic period (myocardial restoration).

[4] = system: isolated rabbit hearts; experiment: coronary vasodilator effect: coronary flow, isolated heart (Langendorff)
Description: as §1, §2

[5] = session 6 (every 15 minutes), * p < 0.05
[6] = read-out: Mean percent variation versus controls: excitability (-%)
[7] = read-out: Mean percent variation versus controls: frequency max (-%)
[8] = read-out: Mean percent variation versus controls: refractory period (+%)
[9] = read-out: Mean percent variation versus controls: rheobase (+%)

SMILES: CCCCCCCCCCCCCCCC(=O)OC(CC(=O)[O-])C[N+](C)(C)C (racemic) [palmitoyl-d,l-carnitine]
- responders at 300 mg/kg ([1]; session 1 (every 15 minutes)): 0%
- responders at 300 mg/kg ([1]; session 2 (every 15 minutes)): 0%
- responders at 300 mg/kg ([1]; session 3 (every 15 minutes)): 0%
- responders at 300 mg/kg ([1]; session 4 (every 15 minutes)): 0%
- responders at 300 mg/kg ([1]; session 5 (every 15 minutes)): 10%
- responders at 300 mg/kg ([1]; session 6 (every 15 minutes)): 10%
- responders at 400 mg/kg ([1]; session 1 (every 15 minutes)): 0%
- responders at 400 mg/kg ([1]; session 2 (every 15 minutes)): 0%
- responders at 400 mg/kg ([1]; session 3 (every 15 minutes)): 0%
- responders at 400 mg/kg ([1]; session 4 (every 15 minutes)): 10%
- responders at 400 mg/kg ([1]; session 5 (every 15 minutes)): 20%
- responders at 400 mg/kg [1, 5]: 20%
- responders at 600 mg/kg ([1]; session 1 (every 15 minutes)): 0%
- responders at 600 mg/kg ([1]; session 2 (every 15 minutes)): 0%
- responders at 600 mg/kg ([1]; session 3 (every 15 minutes)): 0%
- responders at 600 mg/kg ([1]; session 4 (every 15 minutes)): 20%
- responders at 600 mg/kg ([1]; session 5 (every 15 minutes)): 20%
- responders at 600 mg/kg [1, 5]: 30%
- inhibition at 0.001 µg/mL [2, 6]: 0%
- inhibition at 0.01 µg/mL [2, 6]: 3.01%
- inhibition at 0.1 µg/mL [2, 6]: 32.8%
- inhibition at 0.001 µg/mL [2, 7]: 16.9%
- inhibition at 0.01 µg/mL [2, 7]: 8.14%
- inhibition at 0.1 µg/mL [2, 7]: 80.5%
- activation at 0.001 µg/mL [2, 8]: 0%
- activation at 0.01 µg/mL [2, 8]: 13.7%
- activation at 0.1 µg/mL [2, 8]: 34.1%
- activation at 0.001 µg/mL [2, 9]: 22.2%
- activation at 0.01 µg/mL [2, 9]: 7.33%
- activation at 0.1 µg/mL [2, 9]: 6.91%
- Contractile force, Mean ± S.E. ([3]; 1·10^-5 g/lt): 38.2 ± 4.75%
- Contractile force, Mean ± S.E. ([3]; 1·10^-6 g/lt): 27.8 ± 4.71%
- Contractile force, Mean ± S.E. ([3]; 5·10^-6 g/lt): 33.4 ± 3.08%
- Coronary flow, Mean ± S.E. ([4]; 1·10^-5 g/lt): 84.68 ± 7.20%
- Coronary flow, Mean ± S.E. ([4]; 1·10^-6 g/lt): 78.15 ± 7.21%
- Coronary flow, Mean ± S.E. ([4]; 5·10^-6 g/lt): 72.20 ± 12.73%

SMILES: CC(N)Cc1ccccc1 (racemic) [d,l-amphetamine, reference compound]
- responders at 0.25 mg/kg ([1]; session 1 (every 15 minutes)): 0%
- responders at 0.25 mg/kg ([1]; session 2 (every 15 minutes)): 12.5%
- responders at 0.25 mg/kg ([1]; session 3 (every 15 minutes)): 25%
- responders at 0.25 mg/kg ([1]; session 4 (every 15 minutes)): 25%
- responders at 0.25 mg/kg ([1]; session 5 (every 15 minutes)): 25%
- responders at 0.25 mg/kg ([1]; session 6 (every 15 minutes)): 25%
- responders at 0.5 mg/kg ([1]; session 1 (every 15 minutes)): 0%
- responders at 0.5 mg/kg ([1]; session 2 (every 15 minutes)): 5.88%
- responders at 0.5 mg/kg ([1]; session 3 (every 15 minutes)): 11.8%
- responders at 0.5 mg/kg ([1]; session 4 (every 15 minutes)): 23.5%
- responders at 0.5 mg/kg ([1]; session 5 (every 15 minutes)): 29.4%
- responders at 0.5 mg/kg ([1]; session 6 (every 15 minutes)): 35.3%
- responders at 1 mg/kg ([1]; session 1 (every 15 minutes)): 0%
- responders at 1 mg/kg ([1]; session 2 (every 15 minutes)): 8.33%
- responders at 1 mg/kg ([1]; session 3 (every 15 minutes)): 25%
- responders at 1 mg/kg ([1]; session 4 (every 15 minutes)): 33.3%
- responders at 1 mg/kg ([1]; session 5 (every 15 minutes), * p < 0.05): 58.3%
- responders at 1 mg/kg [1, 5]: 58.3%

SMILES: C=C[C@H]1C[N@@]2CC[C@H]1C[C@@H]2[C@@H](O)c1ccnc2ccc(OC)cc12 [Quinidine, reference compound]
- inhibition at 0.1 µg/mL ([2]; 1·10^-4 g/lt, decrease, read-out: Mean percent variation versus controls: excitability (-%)): 189%
- inhibition at 0.1 µg/mL ([2]; 1·10^-4 g/lt, decrease, read-out: Mean percent variation versus controls: frequency max (-%)): 71.2%
- activation at 0.1 µg/mL ([2]; 1·10^-4 g/lt, increase, read-out: Mean percent variation versus controls: refractory period (+%)): 57.4%
- activation at 0.1 µg/mL ([2]; 1·10^-4 g/lt, increase, read-out: Mean percent variation versus controls: rheobase (+%)): 54.1%
- inhibition at 0.01 µg/mL ([2]; 1·10^-5 g/lt, decrease, read-out: Mean percent variation versus controls: excitability (-%)): 23.4%
- inhibition at 0.01 µg/mL ([2]; 1·10^-5 g/lt, decrease, read-out: Mean percent variation versus controls: frequency max (-%)): 24.1%
- activation at 0.01 µg/mL ([2]; 1·10^-5 g/lt, increase, read-out: Mean percent variation versus controls: refractory period (+%)): 20.4%
- activation at 0.01 µg/mL ([2]; 1·10^-5 g/lt, increase, read-out: Mean percent variation versus controls: rheobase (+%)): 25.1%
- inhibition at 0.001 µg/mL ([2]; 1·10^-6 g/lt, decrease, read-out: Mean percent variation versus controls: excitability (-%)): 16.9%
- inhibition at 0.001 µg/mL ([2]; 1·10^-6 g/lt, decrease, read-out: Mean percent variation versus controls: frequency max (-%)): 11.7%
- activation at 0.001 µg/mL ([2]; 1·10^-6 g/lt, increase, read-out: Mean percent variation versus controls: refractory period (+%)): 3.12%
- activation at 0.001 µg/mL ([2]; 1·10^-6 g/lt, increase, read-out: Mean percent variation versus controls: rheobase (+%)): 7.14%

— patent US4194006A, “Therapeutic application of acetyl-d,l-carnitine and other acyl derivatives of d,l-carnitine” (priority 1977, dated 1980)
